This is an account of results in patent US4415577A, “Bis-sparteine derivatives and method of using same in therapy” (Kali-Chemie Pharma GmbH, priority 1980, dated 1983).

Structures can show the parent of a compound that is named as a salt. Some results are limits rather than exact numbers.

The nature of data set [1]: acute toxicity (LD50) in mice after oral administration. It is filed as in vivo, mouse (male NMRI). The conditions noted are these: mouse, in vivo; male NMRI-mice, oral, 50% mortality on the 7th day; read-out: LD50 per os. As for the experimental part: (§1) The acute toxicity of the compounds is determined in male NMRI-mice (body weight range 18-22 g) after oral (p.o) administration. The LD50 is defined as that dose in μmol/kg which causes a 50% mortality rate of the test animals on the 7th day after application. The calculation of the LD50 is carried out by probitanalysis (see L. Cavalli-Sforza, Grundbegriffe der Biometric, Gustav Fischer Verlag Stuttgart (1964).

Data set [2] relates to aconitin-induced arrhythmic effects. The experiment in a line: aconitin-induced arrhythmia test (Aconitine test), oral. The format is in vivo, rat (male Wistar). The conditions noted are these: for minimal effective dose: Rattus norvegicus, po, 3 h, read-out: Aconitine test, effective dose per os. As for the experimental part: The influence of the novel compound on aconitin-induced arrhythmic effects is determined on male Wistar rats (weighing 280-350 g) which are treated with an aconitin infusion according to the method of Raschak (M. Raschak, Arzneim. Forschung (Drug Research) 25 (1975) pp. 639-641). The effective dose which is given in μmol/kg, is the dose which cause a significant difference in time between the starting of the aconitin-induced arrhythmic effect in animals treated with the active ingredient and the starting of this aconitin-induced effect in an untreated control group of animals. In order to be considered effective the dose must cause a significant prolongation of the period until the aconitin-induced arrhythmic effects start, and it must be effective against at least two of the aconitin-induced arrhythmic symptoms (extrasystoles, ventricular flutter, ventricular tachycardia). The test compound is applied orally inform of a 2% suspension of tylose ^R MH 50 three hours before the aconitin-infusion is started.
As a standard dose one tenth of the LD50 in mice is used. If a test compound is effective at this dose, the dose is reduced in a following test. The statistical t-test method according to Student using logarithmic values of the effective values is used for significance testing (see Lothar Sachs, Statistische Auswertungsmethoden, Springer Verlag 1969).

For another data set, the system named is isolated left atria. The experiment in a line: prolongation of the functional refractory period (FRP), double stimulus method of Govier. Set-up: species or system guinea pig (female albino-pirbright-white). To be noted: Cavia porcellus, 0.3 h; isolated left atria of female guinea pigs, 18 minutes after application; read-out: FRP 125% (concentration causing prolongation of the functional refractory period to 125%).

The next data set deals with male NMRI-mice. The data set is described as follows: acute toxicity (LD50) in mice after oral administration. It is filed as in vivo, mouse (male NMRI). The conditions noted are these: comparison in words. As for the experimental part:
as §1

`C1CCN2C[C@@H]3C[C@@H]([C@@H]([C@@H]4[C@@H]5C[C@@H](CN6CCCC[C@H]56)[C@@H]5CCCCN45)N4CCCC[C@@H]34)[C@H]2C1` [17S,17'S-bissparteine ditartrate]: the 50% lethal dose (LD50) at 168 h in data set [1] was over 1900 µmol/kg. Also, the minimal effective dose in data set [2] was 33 µmol/kg. For the same molecule, in the data set on isolated left atria, the EC (125%) turned out to be 5 µM.
With `C1CCN2C[C@@H]3C[C@@H]([C@@H]([C@@H]4[C@@H]5C[C@@H](CN6CCCC[C@H]56)[C@@H]5CCCCN45)N4CCCC[C@@H]34)[C@H]2C1` [17S,17'S-bissparteine], the “toxicity compared with known sparteine derivatives” value with male NMRI-mice is given as “less toxic”. In addition, in data set [2] (conclusion in words from table 1), the “effectiveness compared with the known tested sparteine compounds” value is “more effective than the known tested sparteine compounds”. In addition, the “effect after oral application, after a period of 3 hours” value in data set [2] (oral, after 3 hours, same conditions for known compounds) is reported as “retains its good effect even after a period of 3 hours”.
In the case of `CCCCCC1C2CC(CN3CCCCC23)C2CCCCN21` (stereo not drawn) [Pentyl sparteine tartrate], the median lethal dose (LD50) at 168 h in data set [1] was 1800 µmol/kg. Besides, the minimal effective dose in data set [2] is over 180 µmol/kg. Moreover, the EC (125%) with isolated left atria came to 9 µM.
The corresponding values for `C1CCN2C[C@@H]3C[C@@H](CN4CCCC[C@@H]34)[C@H]2C1` [Sparteine sulfate] are 540 µmol/kg, over 54 µmol/kg and 34 µM.

In general, LD50 refers to the dose at which mortality reaches 50%.
